Assay results reported in patent US8785424B2, “ngCycloartanone derivatives with anticancer activity” (Pierre Fabre Medicament, priority 2009, dated 2014).

Tested on: proteasome
Assay: Cellular proteasome inhibition test: accumulation of 4Ub-Luc reporter (luciferase activity) in DLD-1 4Ub-Luc cell line
Type: cell-based, human
Details: DLD-1 4Ub-Luc cells, 8 hours, epoxomicin = 100%
Method: Biological tests were carried out according to protocols described in the following articles: Ausseil F. et al. J. Biomol Screen. 2007, 12, 106-116 and Vandenberghe I. et al. Biochemical Pharmacology 2008, 76, 453-462.
In order to select novel proteasome inhibitor compounds, it is necessary to indirectly measure the activity of this proteasome within cells. To this end, we constructed a stable cell line, DLD-1 4Ub-Luc, arising from a human colon cancer cell line, which produces a chimeric reporter protein called 4Ub-Luc. This protein is a fusion between a 4-ubiquitin (4Ub) label and luciferase (Luc). This label is capable to direct every proteins that carry it toward the proteasome. The 4Ub-Luc protein is thus efficiently degraded by the proteasome, in contrast to the “wild” non-fused Luc protein. When the DLD-1 4Ub-Luc cell line is treated with a proteasome inhibitor, the fusion protein is much less efficiently degraded and accumulates in the cell. This accumulation is detected by an increase in luciferase activity in the treated extract compared to the extract from untreated cells. The control consists of verifying that the inhibitor has no effect on accumulation of the wild Luc protein produced by the stable DLD-1 RF cell line. For both cell lines and for each product an induction factor is determined for the product tested (or the reference) corresponding to the ratio between the luciferase activities measured in cells treated with this product (or the reference) and cells treated with solvent alone.
The product's activity is then defined by its relative induction factor, i.e., the ratio of its induction factor (IF % luminescence) to that of the reference molecule epoxomicin (IF=100%; see data presented in the table below).
Thus, the test established by Pierre-Fabre is a cellular test that has the advantage, compared to a purely enzymatic test, of detecting only products capable of penetrating the cell.
Two cell lines are used for this test: DLD-1 RF and DLD-1 4Ub-Luc. The culture medium used is as follows: • MEM • 5% fetal calf serum • 5 ml of penicillin-streptomycin • 2.5 ml of FUNGIZONE® (Amphotericin B) • 10 ml of […]
Day 1: Inoculate white 96-well culture-treated plates (PerkinElmer White ViewPlate, product no. 6005181) with 100 μl of 1·10^5 c/ml cell suspension per well. Incubate for 24 hours so that the cells adhere. On each plate five columns will be inoculated with DLD-1 4Ub-Luc and five others with DLD-1 RF according to diagram 1 below.
Day 2: Remove the medium by turning the plates upside down on cotton, and then carry out the treatment with the compounds of the invention, with solvent alone or with a reference compound such as epoxomicin. […]
The columns are paired (examples 2 and 8, 3 and 9, 4 and 10 and 5 and 11) and treated with the same compound. Columns 6 and 7 receive the experimental control, namely 0.1% DMSO in culture medium for wells B, C, D, and E of columns 6 and 7, and the positive control (10^−7 M epoxomicin) in wells F and G.
After incubation, turn the plate upside down on cotton to empty the wells, rinse with 50 μl of PBS to remove any trace of the cytotoxin tested and then add 50 μl of 5× passive lysis buffer (Promega, product no. E1941) diluted to ⅕ in water. Shake energetically using a plate shaker for 5 to 10 minutes at room temperature before freezing at −20° C.
Luciferase activity is measured using a Luciferase Assay System 10-Pack kit (Promega, product no. E1501).
On the day luciferase activity is to be measured, defrost the plates and wait until they have returned to room temperature. The optimal temperature for luciferase activity is 20-25° C.
Reconstitute the firefly luciferase substrate by defrosting the buffer and then adding 10 ml of buffer to the bottle containing the freeze-dried substrate. Wait until the solution is at room temperature before beginning the assay. […]

[1] = concentration tested 5 · 10^−6 M
[2] = concentration tested 5 · 10^−7 M

Row | Structure (SMILES) | relative induction factor (IF % luminescence) versus epoxomicin [1] [%] | relative induction factor (IF % luminescence) versus epoxomicin [2] [%] | relative induction factor (IF % luminescence) versus epoxomicin (concentration tested 10^−5 M) [%] | relative induction factor (IF % luminescence) versus epoxomicin (concentration tested 10^−6 M) [%]
1 | C=C(C(=O)[C@H](O)[C@@H](C)[C@H]1[C@@H](OC(C)=O)C[C@@]2(C)[C@@H]3CC[C@H]4[C@H](C)C(=O)C=C[C@@]45C[C@@]35CC[C@]12C)[C@@H](C)CO [Compound 1, 22-deacetyl-neoboutomellerone] | 28 | 1 | 3 | 45
2 | C=C(C(=O)[C@H](OC(C)=O)[C@@H](C)[C@H]1[C@@H](OC(C)=O)C[C@@]2(C)[C@@H]3CC[C@H]4[C@H](C)C(=O)C=C[C@@]45C[C@@]35CC[C@]12C)[C@@H](C)CO [Compound 2, Neoboutomellerone] | 37 | 2 | 4 | 48
3 | C=C(C(=O)[C@H](OC(C)=O)[C@@H](C)[C@H]1[C@@H](OC(C)=O)C[C@@]2(C)C3CCC4C(C)C(=O)C=CC45CC35CC[C@]12C)[C@@H](C)CO (stereo partly drawn) [Compound 4, Diastereoisomer of Ring A of Neoboutomellerone] | 84 |  | 24 | 2
4 | C=C(C(=O)[C@H](OC(C)=O)[C@@H](C)[C@H]1[C@@H](OC(C)=O)C[C@@]2(C)[C@@H]3C[C@@H](O)[C@H]4[C@H](C)C(=O)C=C[C@@]45C[C@@]35CC[C@]12C)[C@@H](C)CO [Compound 6, 6-hydroxy-neoboutomellerone] | 31 |  |  | 5
5 | C=C(C(=O)[C@H](O)[C@@H](C)[C@H]1[C@@H](OC(C)=O)C[C@@]2(C)[C@@H]3CC[C@H]4[C@H](C)C(=O)C=C[C@@]45C[C@@]35CC[C@]12C)C(C)C [Compound 7, 22-deacetyl,26-dehydroxy-neoboutomellerone] | 65 |  | 21 | 2
6 | C=C(C(=O)[C@H](OC(C)=O)[C@@H](C)[C@H]1[C@@H](OC(C)=O)C[C@@]2(C)[C@@H]3CC[C@H]4[C@H](C)C(=O)C=C[C@@]45C[C@@]35CC[C@]12C)C(C)C [Compound 8, 26-dehydroxy-neoboutomellerone] | 74 |  | 19 | 7
7 | CC(=O)O[C@H]1C[C@@]2(C)[C@@H]3CC[C@H]4[C@H](C)C(=O)C=C[C@@]45C[C@@]35CC[C@]2(C)[C@H]1[C@H](C)[C@@H](OC(C)=O)C(=O)C=C(C)C [Compound 9, 26-dehydroxy,24,25-dehydro-nor-neoboutomellerone] | 34 |  | 44 | 1
8 | CC(=O)O[C@H]1C[C@@]2(C)[C@@H]3CC[C@H]4[C@H](C)C(=O)C=C[C@@]45C[C@@]35CC[C@]2(C)[C@H]1[C@H](C)[C@@H](O)C(=O)C=C(C)C [Compound 10, 22-deacetyl,26-dehydroxy,24,25-dehydro-nor-neoboutomellerone] | 5 |  | 53 | 1
9 | C=C(C(=O)[C@H](OC(C)=O)[C@@H](C)[C@H]1[C@@H](OC(C)=O)C[C@@]2(C)[C@@H]3CC[C@H]4[C@H](C)C(=O)CC[C@@]45C[C@@]35CC[C@]12C)[C@@H](C)CO [Compound 11, 1,2-dihydro-neoboutomellerone] | 45 |  | 48 | 1
10 | C=C(C(=O)[C@H](OC(C)=O)[C@@H](C)[C@H]1[C@@H](OC(C)=O)C[C@@]2(C)[C@@H]3[C@H]4O[C@H]4[C@H]4[C@H](C)C(=O)C=C[C@@]45C[C@@]35CC[C@]12C)[C@@H](C)CO [Compound 12, 6,7-epoxy-neoboutomellerone] | 72 |  | 15 | 3
11 | C=C(C(=O)C(OC(C)=O)C(C)[C@H]1[C@@H](OC(C)=O)C[C@@]2(C)[C@@H]3CC[C@H]4[C@H](C)C(=O)C=C[C@@]45C[C@@]35CC[C@]12C)C(C)CO (stereo partly drawn) [Compound 13, Diastereoisomer on the Side Chain of Neoboutomellerone] | 71 |  | 60 | 2
12 | C=C(C(=O)[C@H](O)[C@@H](C)[C@H]1[C@@H](OC(C)=O)C[C@@]2(C)[C@@H]3CC[C@H]4[C@H](C)C(=O)CC[C@@]45C[C@@]35CC[C@]12C)[C@@H](C)CO [Compound 14, 1,2-dihydro-22-deacetyl-neoboutomellerone] | 10 |  | 77 | 1
13 | C=C(C(=O)[C@H](O)[C@@H](C)[C@H]1[C@@H](OC(C)=O)C[C@@]2(C)[C@@H]3CC[C@H]4[C@H](C)C(=O)C[C@H](O)[C@@]45C[C@@]35CC[C@]12C)[C@@H](C)CO [Compound 15, 1-hydroxy-2-hydro-22-deacetyl-neoboutomellerone] | 11 |  | 74 | 2
14 | C=C(C(=O)[C@H](O)[C@@H](C)[C@H]1[C@@H](OC(C)=O)C[C@@]2(C)[C@@H]3C[C@@H](O)[C@H]4[C@H](C)C(=O)C=C[C@@]45C[C@@]35CC[C@]12C)[C@@H](C)CO [Compound 16, 6-hydroxy-22-deacetyl-neoboutomellerone] | 35 |  |  | 1
15 | C=C(C(=O)[C@H](O)[C@@H](C)[C@H]1[C@@H](OC(C)=O)C[C@@]2(C)C3CCC4[C@H](C)C(=O)C=C[C@@]45C[C@@]35CC[C@]12C)[C@@H](C)COC(C)=O (stereo partly shown) [Compound 17, 26-acetyl-22-deacetyl-neoboutomellerone] | 29 | 2 | 6 | 26
16 | C=C(C(=O)[C@H](OC(C)=O)[C@@H](C)[C@H]1[C@@H](OC(C)=O)C[C@@]2(C)[C@@H]3CC[C@H]4[C@H](C)C(=O)C=C[C@@]45C[C@@]35CC[C@]12C)[C@@H](C)COC(C)=O [Compound 18, 26-acetyl-neoboutomellerone] | 48 | 1 |  | 12
17 | C=C(C(=O)[C@H](OC(C)=O)[C@@H](C)[C@H]1[C@@H](OC(C)=O)C[C@@]2(C)[C@@H]3CC[C@H]4[C@H](C)C(=O)C=C[C@@]45C[C@@]35CC[C@]12C)[C@@H](C)COC [Compound 19, 26-methoxy-neoboutomellerone] | 45 | 1 |  | 40
